Drawing on patent publication US9650340B2, “5-fluoro-N-(pyridin-2-yl)pyridin-2-amine derivatives containing a sulfoximine group” (BAYER PHARMA AKTIENGESELLSCHAFT, priority 2012, dated 2017), this text covers IC50 for 10 compounds.

For assay [1], the system named is Caco-2, human colorectal carcinoma cells. The assay is described as follows: Proliferation assay, Caco-2 (crystal violet). Conditions: Caco-2, 4 days, read-out: Inhibition of Caco-2 cell proliferation IC50. The class given is cell-based. The procedure: (§1) Cultivated tumour cells (HeLa, human cervical tumour cells, ATCC CCL-2; NCI-H460, human non-small cell lung carcinoma cells, ATCC HTB-177; A2780, human ovarian carcinoma cells, ECACC #93112519; DU 145, hormone-independent human prostate carcinoma cells, ATCC HTB-81; HeLa-MaTu-ADR, multidrug-resistant human cervical carcinoma cells, EPO-GmbH Berlin; Caco-2, human colorectal carcinoma cells, ATCC HTB-37; B16F10, mouse melanoma cells, ATCC CRL-6475) were plated at a density of 5,000 cells/well (DU145, HeLa-MaTu-ADR), 3,000 cells/well (NCI-H460, HeLa), 2,500 cells/well (A2780), 1,500 cells/well (Caco-2), or 1,000 cells/well (B16F10) in a 96-well multititer plate in 200 μL of their respective growth medium supplemented 10% fetal calf serum. After 24 hours, the cells of one plate (zero-point plate) were stained with crystal violet (see below), while the medium of the other plates was replaced by fresh culture medium (200 μl), to which the test substances were added in various concentrations (0 μM, as well as in the range of 0.001-10 μM; the final concentration of the solvent dimethyl sulfoxide was 0.5%). The cells were incubated for 4 days in the presence of test substances. Cell proliferation was determined by staining the cells with crystal violet: the cells were fixed by adding 20 μl/measuring point of an 11% glutaric aldehyde solution for 15 minutes at room temperature. After three washing cycles of the fixed cells with water, the plates were dried at room temperature. The cells were stained by adding 100 μl/measuring point of a 0.1% crystal violet solution (pH 3.0). After three washing cycles of the stained cells with water, the plates were dried at room temperature. The dye was dissolved by adding 100 μl/measuring point of a 10% acetic acid solution. The extinction was determined by photometry at a wavelength of 595 nm. The change of cell number, in percent, was calculated by normalization of the measured values to the extinction values of the zero-point plate (=0%) and the extinction of the untreated (0 μm) cells (=100%). The IC50 values (inhibitory concentration at 50% of maximal effect) were determined by means of a 4 parameter fit. Non-adherent MOLM-13 human acute myeloid leukemia cells (DSMZ ACC 554) were seeded at a density of 5,000 cells/well in a 96-well multititer plate in 100 μL of growth medium supplemented 10% fetal calf serum. After 24 hours, cell viability of one plate (zero-point plate) was determined with the Cell Titre-Glo Luminescent Cell Viability Assay (Promega), while 50 μL of test compound containing medium was added to the wells of the other plates (final concentrations in the range of 0.001-10 μM and DMSO controls; the final concentration of the solvent dimethyl sulfoxide was 0.5%). Cell viability was assessed after 72-hour exposure with the Cell Titre-Glo Luminescent Cell Viability Assay (Promega).

The target of assay [2] is T1, CDK2/CycE (Homo sapiens, UniProt P24941).
T1 construct: GST; purchased ProQinase GmbH (Freiburg, Germany); host or cells: insect cells (Sf9)
The assay is described as follows: CDK2/CycE kinase assay (TR-FRET, 10 μM ATP). It is filed as biochemical. To be noted: Method 2 (2a). From the text: 2a. CDK2/CycE Kinase Assay:
CDK2/CycE-inhibitory activity of compounds of the present invention was quantified employing the CDK2/CycE TR-FRET assay as described in the following paragraphs:
Recombinant fusion proteins of GST and human CDK2 and of GST and human CycE, expressed in insect cells (Sf9) and purified by Glutathion-Sepharose affinity chromatography, were purchased from ProQinase GmbH (Freiburg, Germany). As substrate for the kinase reaction biotinylated peptide biotin-Ttds-[…] (C-terminus in amid form) was used which can be purchased e.g. form the company JERINI Peptide Technologies (Berlin, Germany).
For the assay 50 nl of a 100 fold concentrated solution of the test compound in DMSO was pipetted into a black low volume 384 well microtiter plate (Greiner Bio-One, Frickenhausen, Germany), 2 μl of a solution of CDK2/CycE in aqueous assay buffer [50 mM Tris/HCl pH 8.0, 10 mM MgCl2, 1.0 mM dithiothreitol, 0.1 mM sodium ortho-vanadate, 0.01% (v/v) Nonidet-P40 (Sigma)] were added and the mixture was incubated for 15 min at 22° C. to allow pre-binding of the test compounds to the enzyme before the start of the kinase reaction. Then the kinase reaction was started by the addition of 3 μl of a solution of adenosine-tri-phosphate (ATP, 16.7 μM=>final conc. in the 5 μl assay volume is 10 μM) and substrate (1.25 μM=>final conc. in the 5 μl assay volume is 0.75 μM) in assay buffer and the resulting mixture was incubated for a reaction time of 25 min at 22° C. The concentration of CDK2/CycE was adjusted depending of the activity of the enzyme lot and was chosen appropriate to have the assay in the linear range, typical concentrations were in the range of 130 ng/mL The reaction was stopped by the addition of 5 μl of a solution of TR-FRET detection reagents (0.2 μM streptavidine-XL665 [Cisbio Bioassays, Codolet, France] and 1 nM anti-RB(pSer807/pSer811)-antibody from BD Pharmingen [#558389] and 1.2 nM LANCE EU-W1024 labeled anti-mouse IgG antibody [Perkin-Elmer, product no. AD0077]) in an aqueous EDTA-solution (100 mM EDTA, 0.2% (w/v) bovine serum albumin in 100 mM HEPES/NaOH pH 7.0).
The resulting mixture was incubated 1 h at 22° C. to allow the formation of complex between the phosphorylated biotinylated peptide and the detection reagents. Subsequently the amount of phosphorylated substrate was evaluated by measurement of the resonance energy transfer from the Eu-chelate to the streptavidine-XL. Therefore, the fluorescence emissions at 620 nm and 665 nm after excitation at 350 nm was measured in a TR-FRET reader, e.g. a Rubystar (BMG Labtechnologies, Offenburg, Germany) or a Viewlux (Perkin-Elmer). The ratio of the emissions at 665 nm and at 622 nm was taken as the measure for the amount of phosphorylated substrate.

In assay [3] the test system is MOLM-13 human acute myeloid leukemia cells. The assay is described as follows: Proliferation assay, MOLM-13 (Cell Titre-Glo). The class given is cell-based. To be noted: MOLM-13, 72-hour exposure, read-out: Inhibition of MOLM-13 cell proliferation IC50. How it is done:
as §1

In assay [4] the test system is HeLa-MaTu-ADR, multidrug-resistant human cervical carcinoma cells. The assay is described as follows: Proliferation assay, HeLa-MaTu-ADR (crystal violet). Conditions: 4 days, read-out: Inhibition of HeLa-MaTu-ADR cell proliferation IC50. The class given is cell-based. How it is done: as §1
The test system of assay [5] is A2780, human ovarian carcinoma cells. The assay is described as follows: Proliferation assay, A2780 (crystal violet). It is filed as cell-based. Conditions: Homo sapiens, A2780, 96 h, A2780, 4 days; read-out: Inhibition of A2780 cell proliferation IC50. The procedure: as §1
Assay [6] concerns B16F10, mouse melanoma cells. In words: Proliferation assay, B16F10 (crystal violet). The class given is cell-based. Conditions: B16F10, 4 days, read-out: Inhibition of B16F10 cell proliferation IC50. The procedure: as §1

Where a name gives a salt, the structure may show the parent alone. Read-outs that look alike come from different tables or passages of the source.

As to `COc1cc(F)ccc1-c1cc(Nc2cc(CS(C)(=N)=O)ccn2)ncc1F` (racemic) [Example 1, (rac)-5-Fluoro-4-(4-fluoro-2-methoxyphenyl)-N-{4-[(S-methylsulfonimidoyl)methyl]pyridin-2-yl}pyridin-2-amine], the IC50 came to 0.045 µM in assay [1] (Homo sapiens, Caco-2, 96 h); 0.41 µM in assay [2]; 0.019 µM in assay [3] (Homo sapiens, MOLM-13, 72 h); 0.061 µM in assay [4] (Homo sapiens, 96 h); 0.026 µM in assay [5]; 0.11 µM in assay [6] (Mus musculus, B16-F10, 96 h).

In the case of `COc1cc(F)ccc1-c1cc(Nc2cc(CS(C)(=N)=O)cc(C)n2)ncc1F` (racemic) [Example 4, (rac)-5-Fluoro-4-(4-fluoro-2-methoxyphenyl)-N-{6-methyl-4-[(S-methylsulfonimidoyl)methyl]pyridin-2-yl}pyridin-2-amine], the IC50 in assay [1] (Homo sapiens, Caco-2, 96 h) was 0.068 µM; in assay [2], 0.12 µM; in assay [3] (Homo sapiens, MOLM-13, 72 h), 0.035 µM; in assay [4] (Homo sapiens, 96 h) it was 0.034 µM; in assay [5], 0.037 µM; in assay [6] (Mus musculus, B16-F10, 96 h) it was 0.1 µM.

Regarding `COc1cc(CS(C)(=N)=O)cc(Nc2cc(-c3ccc(F)cc3OC)c(F)cn2)n1` (racemic) [Example 6, (rac)-5-Fluoro-4-(4-fluoro-2-methoxyphenyl)-N-{6-methoxy-4-[(S-methylsulfonimidoyl)methyl]pyridin-2-yl}pyridin-2-amine], the IC50 in assay [1] (Homo sapiens, Caco-2, 96 h) was 0.031 µM; in assay [2] it was 0.004 µM; in assay [3] (Homo sapiens, MOLM-13, 72 h), 0.011 µM; in assay [4] (Homo sapiens, 96 h) it was 0.03 µM; in assay [5], 0.011 µM; in assay [6] (Mus musculus, B16-F10, 96 h), 0.033 µM.

For the compound `COc1cc(F)ccc1-c1cc(Nc2cc(CS(C)(=N)=O)cc(Cl)n2)ncc1F` (racemic) [Example 7, (rac)-N-{6-Chloro-4-[(S-methylsulfonimidoyl)methyl]pyridin-2-yl}-5-fluoro-4-(4-fluoro-2-methoxyphenyl)pyridin-2-amine], the IC50 amounted to 0.041 µM in assay [1] (Homo sapiens, Caco-2, 96 h); 0.044 µM in assay [2]; 0.028 µM in assay [3] (Homo sapiens, MOLM-13, 72 h); 0.032 µM in assay [4] (Homo sapiens, 96 h); 0.027 µM in assay [5]; 0.034 µM in assay [6] (Mus musculus, B16-F10, 96 h).

For the compound `COc1cc(F)ccc1-c1cc(Nc2cc(CS(=N)(=O)CCO)ccn2)ncc1F` (racemic) [Example 8, (rac)-2-{S-[(2-{[5-Fluoro-4-(4-fluoro-2-methoxyphenyl)pyridin-2-yl]amino}pyridin-4-yl)methyl]sulfonimidoyl}ethanol], the IC50 in assay [1] (Homo sapiens, Caco-2, 96 h) came out at 0.16 µM; in assay [2], 0.43 µM; in assay [3] (Homo sapiens, MOLM-13, 72 h) it was 0.055 µM; in assay [4] (Homo sapiens, 96 h) it was 0.2 µM; in assay [5], 0.045 µM; in assay [6] (Mus musculus, B16-F10, 96 h), 0.186 µM.

As to `COc1cc(F)ccc1-c1cc(Nc2cc(CS(=N)(=O)CCN)ccn2)ncc1F` (racemic) [Example 9, (rac)-N-(4-{[S-(2-Aminoethyl)sulfonimidoyl]methyl}pyridin-2-yl)-5-fluoro-4-(4-fluoro-2-methoxyphenyl)pyridin-2-amine], the IC50 in assay [2] amounted to 0.24 µM; in assay [3] (Homo sapiens, MOLM-13, 72 h), 0.12 µM; in assay [5], 0.21 µM.

Turning to `CCOc1cc(F)ccc1-c1cc(Nc2cc(CS(C)(=N)=O)cc(F)n2)ncc1F` (single isomer, unassigned; (-)) [Example 29, (−)-4-(2-Ethoxy-4-fluorophenyl)-5-fluoro-N-{6-fluoro-4-[(S-methylsulfonimidoyl)methyl]pyridin-2-yl}pyridin-2-amine], the IC50 in assay [1] came out at 0.1 µM; in assay [2], 0.098 µM; in assay [4], 0.081 µM; in assay [6], 0.11 µM.

Turning to `COc1cc(F)ccc1-c1cc(Nc2cc(CS(C)(=N)=O)cc(C)n2)ncc1F` (single isomer, unassigned; (-)) [Example 33, (−)-5-Fluoro-4-(4-fluoro-2-methoxyphenyl)-N-{6-methyl-4-[(S-methylsulfonimidoyl)methyl]pyridin-2-yl}pyridin-2-amine], the IC50 in assay [1] is 0.03 µM; in assay [2] it was 0.067 µM; in assay [3], 0.023 µM; in assay [4] it was 0.027 µM; in assay [6], 0.054 µM.

Take `COc1cc(F)ccc1-c1cc(Nc2cc(CS(C)(=N)=O)ccn2)ncc1F` (single isomer, unassigned; enantiomer 1) [Example 16, 5-Fluoro-4-(4-fluoro-2-methoxyphenyl)-N-{4-[(S-methylsulfonimidoyl)methyl]pyridin-2-yl}pyridin-2-amine hydrochloride; enantiomer 1]: the IC50 in assay [1] was 0.12 µM; in assay [2], 0.43 µM; in assay [4], 0.11 µM; in assay [6], 0.15 µM.

In the case of `COc1cc(F)ccc1-c1cc(Nc2cc(CS(C)(=N)=O)ccn2)ncc1F.Cl` (single isomer, unassigned; enantiomer 2) [Example 14, 5-Fluoro-4-(4-fluoro-2-methoxyphenyl)-N-{4-[(S-methylsulfonimidoyl)methyl]pyridin-2-yl}pyridin-2-amine hydrochloride; enantiomer 2], the IC50 was 0.037 µM in assay [1], 0.2 µM in assay [2], 0.046 µM in assay [4] and 0.073 µM in assay [6].
